Key:
[1] = molecular target: T1, Apis mellifera AmelF3 (SEQ ID NO: 39) variant Tyr76His (Y76H) (Apis mellifera, UniProt A0ACM8QI31, Y95H); assay: Binding of haem b to AmelF3 Tyr76His; conditions: UV/Vis, in solution and film
T1 construct: solution and film
T1 sequence (A0ACM8QI31 20-335 Y95H): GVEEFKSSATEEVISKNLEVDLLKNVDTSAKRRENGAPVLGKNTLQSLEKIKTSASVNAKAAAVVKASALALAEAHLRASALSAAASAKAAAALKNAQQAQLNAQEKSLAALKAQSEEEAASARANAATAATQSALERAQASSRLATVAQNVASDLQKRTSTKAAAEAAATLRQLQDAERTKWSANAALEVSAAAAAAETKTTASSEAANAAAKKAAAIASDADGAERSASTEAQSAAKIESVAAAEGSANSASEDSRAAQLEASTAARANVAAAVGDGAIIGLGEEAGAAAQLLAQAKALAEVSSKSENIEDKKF
Experimental: (§1) Site directed mutagenesis of honeybee silk proteins was carried using methods known to the person skilled in the art. For example, to generate AmelF3 Tyr76Ala, the forward primer 5′-[…]-3′ (SEQ ID NO: 80) with the corresponding reverse primer was employed and site directed mutagenesis was carried out using Pfx 50 DNA polymerase from Invitrogen following the Pfx50 manufactures instructions. All AmelF3 mutants were expressed and purified using a similar procedure as the unmodified AmelF3 silk protein. To generate AmelF3 Tyr76His, the forward primer 5′-[…]-3′ (SEQ ID NO: 81) with the corresponding reverse primer was employed. To generate AmelF3 Ala97His, the forward primer 5′-[…]-3′ (SEQ ID NO: 82) was used.
The present inventors also mutated Tyr76 to a histidine and investigated the effect the single amino acid substitution had on binding to haem b. […] The sharp peak observed at around 400 nm is indicative of the coordination of an amino acid residue to the iron haem centre.
A coordinating His residue (His97) was introduced into AmelF3 with Y76H substitution in the a-position of the coiled-coil.

[2] = molecular target: T2, Oecophylla smaragdina silk fibroin 1 (GA1), SEQ ID NO: 9 (Oecophylla smaragdina, UniProt A8IM81); assay: Haem b leached into green ant silk GA1 film; format: binding; conditions: signal at around 400 nm
T2 construct: film
T2 sequence (A8IM81 20-391): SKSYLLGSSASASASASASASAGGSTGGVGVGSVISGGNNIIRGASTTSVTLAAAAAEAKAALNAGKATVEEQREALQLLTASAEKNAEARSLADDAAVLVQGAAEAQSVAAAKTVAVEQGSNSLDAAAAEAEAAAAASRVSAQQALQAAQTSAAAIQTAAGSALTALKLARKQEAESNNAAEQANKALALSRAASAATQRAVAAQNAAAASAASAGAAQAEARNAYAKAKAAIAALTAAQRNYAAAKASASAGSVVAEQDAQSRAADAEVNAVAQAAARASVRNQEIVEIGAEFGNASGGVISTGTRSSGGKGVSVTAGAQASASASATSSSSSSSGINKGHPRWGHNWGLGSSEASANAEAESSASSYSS
From the text: Full length, recombinant honeybee silk proteins (AmelF3) without affinity purification tags, were produced by fermentation in Escherichia coli as described in Weisman et al. (2010). Full length, recombinant Weaver Ant/Green Ant (Oecophylla smaragdina) silk proteins (GA1, GA2, GA3, GA4) without affinity purification tags, were produced by fermentation in Escherichia coli following the same procedures as outlined in Weisman et al. (2010).
Alternatively, haem b was ‘leached’ into a pre-formed film. The AmelF3 material was formed as described in example 1. The silk material was soaked in a solution of haem b (0.5 mg/mL; haem b in excess) in 70% methanol solution for between 1 and 48 hours followed by washing with 70% methanol to remove any unbound haem b and dried at room temperature.
Transparent films from the Green Ant (Oecophylla smaragdina) (GA1-4) silk proteins were prepared as described above. Haem b in 70% methanol was leached into the preformed Green Ant silk film as described at Example 3. UV/Vis spectra were collected for Green Ant silk film after haem b had been leached.

[3] = molecular target: T3, Apis mellifera AmelF3 (SEQ ID NO: 39) variant Tyr76Ala (Apis mellifera, UniProt A0ACM8QI31, Y95A); assay: Binding of chelates to AmelF3 Tyr76Ala sponges or films; conditions: sponge washed with aqueous methanol, qualitative
T3 construct: sponge or film
T3 sequence (A0ACM8QI31 entry or part of it Y95A): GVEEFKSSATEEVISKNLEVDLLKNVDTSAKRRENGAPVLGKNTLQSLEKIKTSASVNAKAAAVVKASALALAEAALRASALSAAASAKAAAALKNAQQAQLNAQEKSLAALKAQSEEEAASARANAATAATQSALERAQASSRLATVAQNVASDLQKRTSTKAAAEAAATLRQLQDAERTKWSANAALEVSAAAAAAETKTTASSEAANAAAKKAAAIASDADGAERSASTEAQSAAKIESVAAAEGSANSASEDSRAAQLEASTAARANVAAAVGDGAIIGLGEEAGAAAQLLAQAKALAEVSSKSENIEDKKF
Experimental: as §1
To test whether Tyr76 was indeed the coordinating ligand, the present inventors replaced Tyr76 with an alanine using site directed mutagenesis of the AmelF3 silk gene.

For C=CC1=C(C)c2cc3[nH]c(cc4nc(cc5[nH]c(cc1n2)c(C)c5CCC(=O)O)C(CCC(=O)O)=C4C)c(C)c3C=C.[Fe] [haem b], the “binding to silk protein (in words)” value [1] was “bound haem b via a co-ordinate bond”, the “haem binding (in words)” value [2] was “strongly bound haem” and the “binding to silk protein (in words)” value [3] was “bound to the silk protein, the metal ion was not coordinated to the polypeptide”.

Reference: patent US10870875B2, “Metalloprotein compositions” (Commonwealth Scientific and Industrial Research Organisation, priority 2014, dated 2020)
